According to publication PMC6630832, “3-Vinylazetidin-2-Ones: Synthesis, Antiproliferative and Tubulin Destabilizing Activity in MCF-7 and MDA-MB-231 Breast Cancer Cells” (Pharmaceuticals, 2019):
Read-outs that look alike come from different tables or passages of the source.

What was measured:
MCF-7 cells = assay: Lactate dehydrogenase (LDH) assay for cytotoxicity; format: cell-based; conditions: Homo sapiens, MCF7, 72 h, read-out: cell death (LDH assay)
Description: Cytotoxicity was determined using the CytoTox 96 non-radioactive cytotoxicity assay (Promega Corporation; 2800 Woods Hollow Road, Madison, WI, USA) following the manufacturer’s protocol. Briefly, MCF-7 cells were seeded in 96-well plates, incubated for 24 hr and then treated with test compounds (7d, 7h, 7i, 7q, 7r, 7u, 7t, 10d, 10f, 12) as described in the cell viability assay above. After 72 h, 20 μL of ‘lysis solution (10X)’ was added to control wells and the plate was incubated for a further 1 hr to ensure 100% death. 50 μL of supernatant was carefully removed from each well and transferred to a new 96-well plate. 50 μL of reconstituted ‘substrate mix’ was added and the plate was placed in the dark at room temperature for 30 min. After this period, 50 μL of ‘stop solution’ was added to each well and the absorbance was read at a wavelength of 490 nm using a Dynatech MR5000 plate reader. The percentage cell death at 10 μM was calculated.

ACHN = assay: NCI60 screen (SRB), Renal cancer; format: cell-based; conditions: Homo sapiens
MDA-MB-468 = assay: NCI60 screen (SRB), Breast cancer; format: cell-based; conditions: Homo sapiens
IGROV1 = assay: NCI60 screen (SRB), Ovarian cancer; format: cell-based; conditions: Homo sapiens, IGROV-1
MALME-3M = assay: NCI60 screen (SRB), Melanoma; format: cell-based; conditions: Homo sapiens
RXF 393 = assay: NCI60 screen (SRB), Renal cancer; format: cell-based; conditions: Homo sapiens
HCT-2998 = assay: NCI60 screen (SRB), Colon Cancer; format: cell-based
KM12 = assay: NCI60 screen (SRB), Colon Cancer; format: cell-based; conditions: Homo sapiens
786-0 = assay: NCI60 screen (SRB), Renal cancer; format: cell-based; conditions: Homo sapiens
HCT-116 = assay: NCI60 screen (SRB), Colon Cancer; format: cell-based; conditions: Homo sapiens
UACC-257 = assay: NCI60 screen (SRB), Melanoma; format: cell-based; conditions: Homo sapiens
COLO 205 = assay: NCI60 screen (SRB), Colon Cancer; format: cell-based; conditions: Homo sapiens
SK-MEL-2 = assay: NCI60 screen (SRB), Melanoma; format: cell-based; conditions: Homo sapiens
PC-3 = assay: NCI60 screen (SRB), Prostate cancer; format: cell-based; conditions: Homo sapiens
HCT-15 = assay: NCI60 screen (SRB), Colon Cancer; format: cell-based; conditions: Homo sapiens
OVCAR-3 = assay: NCI60 screen (SRB), Ovarian cancer; format: cell-based; conditions: Homo sapiens
Plasma stability study = format: in vitro ADME, human; design: half-life: dose or concentration left out as unconfirmed; conditions: 37 °C; for remaining after 6 h: human plasma
Description: (§1) Analytical high-performance liquid chromatography (HPLC) stability studies were performed using a Symmetry® column (C18, 5 µm, 4.6 × 150 mm), a Waters 2487 Dual Wavelength Absorbance detector, a Waters 1525 binary HPLC pump and a Waters 717 plus Autosampler (Waters Corporation, 34 Maple St, Milford, MA, USA). Samples were detected at wavelength of 254 nm. All samples were analysed using acetonitrile (80%) and water (20%) as the mobile phase over 10 min and a flow rate of 1 mL/min. Stock solutions were prepared by dissolving 5 mg of compound 7s, 17b and 17c in 10 mL of mobile phase. Phosphate buffers at the desired pH values (4, 7.4 and 9) were prepared in accordance with the British Pharmacopoeia monograph 2015. 30 µL of stock solution was diluted with 1 mL of appropriate buffer, shaken and injected immediately. Samples were withdrawn and analysed at time intervals of t = 0 min, 5 min, 30 min, 60 min, 90 min, 120 min, 24 h and 48 h. Plasma stability studies: 360 µL stock solution of compounds 7s, 17b and 17c were transferred to buffered plasma (plasma: buffer = 1:9, 4 mL in total) at 37 °C in screw cap container. Immediately a 250 µL aliquot was withdrawn and added to the Eppendorf tube containing 500 µL ZnSO4.7H2O solution (2% w/v ZnSO4 solution in acetonitrile: water, 1:1). The samples were then centrifuged at 10,000 rpm for 3 min and filtered through a 0.2-micron filter and injected according to the HPLC conditions listed above. Further samples were taken in the same manner every 1 h thereafter up to 6 h. A final sample was taken after 24 h. Whole blood stability studies. A 360 µL aliquot of stock solution of compounds 17b and 17c in acetonitrile was added in whole blood (4 mL, treated with 2% sodium citrate) at 37 °C and 300 µL aliquots were withdrawn at approptiate intervals. Samples were transferred to 1.5 mL Eppenddorf tubes containing 1 mL of ZnSO4. 7H2O solution (2% w/v ZnSO4 solution in acetonitrile: water, 1:1), vortexed and then centrifuged for 5 min at 14,000 rpm. The sample filtered through a 0.2-micron filter and injected according to the HPLC conditions listed above.

[1] = HPLC stability study in phosphate buffers; format: physicochemical; conditions: phosphate buffer, read-out: half-life (t½)
Description: as §1

TK-10 = assay: NCI60 screen (SRB), Renal cancer; format: cell-based; conditions: Homo sapiens
HL-60(TB) = assay: NCI60 screen (SRB), Leukemia; format: cell-based; conditions: Homo sapiens; NCI60 Leukemia cell line HL-60(TB)
RPMI-8226 = assay: NCI60 screen (SRB), Leukemia; format: cell-based; conditions: Homo sapiens
[2] = NCI60 Renal cancer cell line ACHN, read-out: GI50
[3] = NCI60 Breast cancer cell line MDA-MB-468, read-out: GI50
[4] = NCI60 Ovarian cancer cell line IGROV1, read-out: GI50
[5] = NCI60 Melanoma cell line MALME-3M, read-out: GI50
[6] = NCI60 Renal cancer cell line RXF 393, read-out: GI50
[7] = NCI60 Colon Cancer cell line HCT-2998, read-out: GI50
[8] = NCI60 Colon Cancer cell line KM12, read-out: GI50
[9] = human, buffered plasma (plasma:buffer 1:9), plasma, read-out: half-life (t½)
[10] = NCI60 Renal cancer cell line 786-0, read-out: GI50
[11] = NCI60 Colon Cancer cell line HCT-116, read-out: GI50
[12] = NCI60 Melanoma cell line UACC-257, read-out: GI50
[13] = NCI60 Colon Cancer cell line COLO 205, read-out: GI50
[14] = NCI60 Melanoma cell line SK-MEL-2, read-out: GI50
[15] = NCI60 Prostate cancer cell line PC-3, read-out: GI50
[16] = NCI60 Colon Cancer cell line HCT-15, read-out: GI50
[17] = NCI60 Ovarian cancer cell line OVCAR-3, read-out: GI50
[18] = NCI60 Renal cancer cell line TK-10, read-out: GI50
[19] = NCI60 Leukemia cell line RPMI-8226, read-out: GI50

Structure (SMILES) | cytotoxicity at 10 µM (MCF-7 cells) | GI50 (ACHN; [2]) | GI50 (MDA-MB-468; [3]) | GI50 (IGROV1; [4]) | GI50 (MALME-3M; [5]) | GI50 (RXF 393; [6]) | GI50 (HCT-2998; [7]) | GI50 (KM12; [8]) | half-life at 14.6 µg/mL ([1]; pH 4) | half-life at 14.6 µg/mL ([1]; pH 7.4) | half-life at 14.6 µg/mL ([1]; pH 9) | GI50 (786-0; [10]) | GI50 (HCT-116; [11]) | GI50 (UACC-257; [12]) | GI50 (COLO 205; [13]) | GI50 (SK-MEL-2; [14]) | GI50 (PC-3; [15]) | GI50 (HCT-15; [16]) | GI50 (OVCAR-3; [17]) | GI50 (TK-10; [18]) | further results
COc1ccc(/C=C\c2cc(OC)c(OC)c(OC)c2)cc1O [CA-4, Combretastatin A-4, reference compound] | 11.8% |  |  |  |  |  |  |  |  |  |  |  |  |  |  |  |  |  |  |  | 
C=CC1C(=O)N(c2cc(OC)c(OC)c(OC)c2)C1c1ccc(OC)cc1 (stereo not shown) [Compound 7h, 4-(4-Methoxyphenyl)-1-(3,4,5-trimethoxyphenyl)-3-vinylazetidin-2-one] | 2.4% |  |  |  |  |  |  |  |  |  |  |  |  |  |  |  |  |  |  |  | GI50 (ACHN; ACHN): 61.5 nM; GI50 (MDA-MB-468; MDA-MB-468): 22.7 nM; GI50 (IGROV1): 40.4 nM; GI50 (MALME-3M; Malme-3M): 73 nM; GI50 (RXF 393; RXF 393): 28.7 nM; GI50 (HCT-2998): 35.3 nM; GI50 (KM12; KM12): 35.1 nM; GI50 (786-0; 786-0): 33.9 nM; GI50 (HCT-116; HCT-116): 30.7 nM; GI50 (UACC-257; UACC-257): 42200 nM; GI50 (COLO 205; COLO 205): 20.6 nM; GI50 (SK-MEL-2; SK-MEL-2): 191 nM; GI50 (PC-3; PC-3): 37.4 nM; GI50 (HCT-15; HCT-15): 37.1 nM; GI50 (OVCAR-3; OVCAR-3): 25.1 nM
C=CC1C(=O)N(c2cc(OC)c(OC)c(OC)c2)C1c1ccc(OC)c(O)c1 (stereo not shown) [Compound 7s, 4-[3-Hydroxy-4-methoxyphenyl]-1-(3,4,5-trimethoxyphenyl)-3-vinylazetidin-2-one] | 16.1% | < 10 nM | < 10 nM | < 10 nM | 28.3 nM | 13.6 nM | 36.4 nM | < 10 nM | > 24 h | > 24 h | > 24 h | 27.3 nM | < 10 nM | > 100000 nM | 32.1 nM | 31.4 nM | < 10 nM | 18 nM | < 10 nM | 10.2 nM | half-life at 41.3 µg/mL (Plasma stability study; [9]): > 24 h
C=CC1C(=O)N(c2cc(OC)c(OC)c(OC)c2)C1c1ccc(OC)c(N)c1 (stereo not shown) [Compound 7t, 4-(3-Amino-4-methoxyphenyl)-1-(3,4,5-trimethoxyphenyl)-3-vinylazetidin-2-one] | 25% |  |  |  |  |  |  |  |  |  |  |  |  |  |  |  |  |  |  |  | GI50 (ACHN; ACHN): 37.3 nM; GI50 (MDA-MB-468; MDA-MB-468): < 10 nM; GI50 (IGROV1): 49.6 nM; GI50 (MALME-3M; Malme-3M): > 100000 nM; GI50 (RXF 393; RXF 393): 36.6 nM; GI50 (HCT-2998): 36.8 nM; GI50 (KM12; KM12): 24.2 nM; GI50 (786-0; 786-0): 34.6 nM; GI50 (HCT-116; HCT-116): 27.6 nM; GI50 (UACC-257; UACC-257): > 100000 nM; GI50 (HL-60(TB)): 13.7 nM; GI50 (COLO 205; COLO 205): 17.5 nM; GI50 (SK-MEL-2; SK-MEL-2): 65.6 nM; GI50 (PC-3; PC-3): 41.5 nM; GI50 (HCT-15; HCT-15): 28.7 nM; GI50 (OVCAR-3; OVCAR-3): 18.1 nM; GI50 (TK-10; TK-10): 26800 nM; GI50 (RPMI-8226; RPMI-8226): < 10 nM
C=CC1C(=O)N(c2cc(OC)c(OC)c(OC)c2)C1c1ccc(OC)c(OP(=O)(O)O)c1 (stereo not shown) [Compound 17b, 2-Methoxy-5-(1-(3,4,5-trimethoxyphenyl)-4-oxo-3-vinylazetidin-2-yl)phenyl dihydrogen phosphate] |  | 64.5 nM | 49.6 nM | 66.9 nM | 54500 nM | 64.8 nM | 190 nM | 39.1 nM | > 24 h | > 24 h | > 24 h | 229 nM | 43.9 nM | > 100000 nM | 1910 nM | 85.8 nM | 53.6 nM | 47.4 nM | 49.7 nM | 11400 nM | remaining after 6 h (Plasma stability study): 94%; half-life (Plasma stability study; [9]): > 24 h; GI50 (HL-60(TB)): 27.3 nM; GI50 (RPMI-8226; [19]): 80.2 nM
CCC1C(=O)N(c2cc(OC)c(OC)c(OC)c2)C1c1ccc(OC)c(OP(=O)(O)O)c1 (stereo not shown) [Compound 17c, 5-(3-Ethyl-1-(3,4,5-trimethoxyphenyl)-4-oxoazetidin-2-yl)-2-methoxyphenyl dihydrogen phosphate] |  | 38.5 nM | 27.6 nM | 37.6 nM | 71400 nM | 36.9 nM | 40.9 nM | 22 nM | > 24 h | > 24 h | > 24 h | 44.5 nM | 35 nM | > 100000 nM | 204 nM | 54.4 nM | 34.9 nM | 29.6 nM | 36.8 nM | 73.6 nM | remaining after 6 h (Plasma stability study): 92%; half-life (Plasma stability study; [9]): > 24 h; GI50 (HL-60(TB)): 28.8 nM; GI50 (RPMI-8226; [19]): 48.2 nM
